The values below come from patent US20230331815A1 (priority 2020, published 2023).

In test [1] the test system is SARS-CoV-2. The conditions noted are these: cited from earlier work.
Test [2] relates to HSPG receptor. Kind of test: hLF cell membrane localization, confocal microscopy of VeroE6/T cells. It is filed as cell-based, African green monkey. To be noted: co-incubation of hLF and heparin. As for the experimental part: To visualize cell membrane localization of human lactoferrin (hLF), VeroE6/T cells (0.75×10^5 cells/well) were chilled at 4° C. for 1 hr, incubated with 2.5 µM of hLF. Cells were washed, fixed using 4% PFA (Invitrogen), stained with anti-hLF antibody, and fluorescent image was taken under confocal microscope (FIG. 10, middle row). Cell nuclei were visualized using DAPI (FIG. 10, bottom row). To visualize the cell surface and nuclei at the same time, the confocal images above (i.e., FIG. 10, middle and bottom rows) were merged and are presented in FIG. 10, top row. […] To see the effect of heparin on the binding of hLF to the cell surface (specifically the HSPG receptor), cells were co-incubated with hLF and heparin (H), and the confocal image was taken (FIG. 10, right column).

Broadly, the IC50 is the concentration needed to halve the response being measured. For Ivermectin, the IC50 in test [1] was 2200 to 2800 nM.

For heparin [reference compound], the “effect on binding of hLF to the cell surface HSPG receptor” value in test [2] is reported as “inhibited”.
